One data set deals with KB cells. Kind of data set: Cancer cell proliferation activities, growth inhibition of KB cells (XTT assay). The data set is classed as cell-based. The conditions noted are these: Homo sapiens, 72 h. The method, then: Cancer Cell Proliferation Activities
As KB cells derived from a human mouth cancer, those purchased from Dainippon Pharmaceutical Co., Ltd. and stored in a lyophilized from at the Research Institute of that company was used. In Dulbecco's modified Eargle's medium containing 10% fetal bovine serum (product of NISSUI PHARMACEUTICAL CO., LTD.), the KB cells were cultured and maintained under the conditions of 5%, CO2 -air and 37° C.
Each compound was used by dissolving it at a concentration of 10 mg/ml in DMSO.
On Day-1, cells which were in a logarithmic growth phase were inoculated at 2,000 cells/100 μl/well on 96-well microtiter plates (Falcon #3072) by using a phenol-red-free culture medium with 10% fetal bovine serum contained therein (Dulbecco's modified Eargle's medium (Sigma)), and were cultured overnight. On Day 0, the compounds each of which had been diluted to 0.03 to 10,000 ng/ml with the same culture medium were added in 100 μl aliquots to the individual wells, and the cells were cultured for 3 days. Three wells were used per each drug concentration. Each plate was provided with three blank wells containing only the culture medium and also with eight wells as a drug-untreated control.
Upon use, XTT (Sigma) was dissolved at a concentration of 1 mg/ml in each culture medium which was free of serum. Phenodin methosulfate (Sigma) dissolved at a concentration of 5 mM in PBS was added to the resulting solution at a volume ratio of 1/200. To each well, the solution so prepared was added in an amount of 50 μl per well. Subsequent to culture for 4 hours, OD was measured at 450 nm by ELISA.
Calculation of 50% Growth Inhibitory Concentration (GI50)
GI50 was calculated by interpolation from a concentration-growth inhibition rate (GIR). GIR was determined in accordance with the following formula: [formula]
On the technique in general: Tetrazolium assays rely on reduction of a dye to a coloured formazan, in cell work by metabolically active cells.

Data set [1] in a line: Solubility test in water of taxane derivatives (HPLC). The conditions noted are these: for Dissolved amount (Y): purified water + 0.1N hydrochloric acid (1.05 eq.), room temperature, 2 hours, HPLC; for solubility: water; for solubility at 2 h: water + 0.1n hcl. The procedure: I) Measurement of the solubility of the compound (b)
1) Preparation of a calibration curve
The compound (b) was weighed in an amount of 1.19 mg, to which 1.19 ml of acetonitrile was added so that the compound was dissolved to provide a standard solution. Using a 10 μl portion of the standard solution, the test was conducted by HPLC (operation conditions 1). […] The peak area obtained as an average of three measurements was plotted against the amount (10.0 μg) of the compound (b) per 10 μl, whereby a calibration curve was prepared.
Calibration curve: Y=2.08×10^-5 X [X: peak area, Y: amount (μg) of the compound (b)]
[HPLC operation conditions 1]
Column: Inertsil ODS-2 (5-250), 40 deg.
Mobile phase: 0.01M KH2 PO4 --CH3 CN (3:2)
Detection: Ultraviolet absorption photometer (225 nm), 0.2 aufs.
2) Solubility test of the compound (b)
(§1) The compound (b) was weighed in an amount of 4.0 mg and then suspended in 2.0 ml of purified water. To the resulting suspension, 45 μl (1.05 eq.) of 0.1N hydrochloric acid was added. By ultrasonication, the resulting mixture was formed into a uniform suspension, which was then shaken at room temperature for 2 hours. The thus-obtained mixture was filtered through a membrane filter (0.22 μm), and the filtrate was provided as a test solution. Using the resulting test solution, the test was conducted by HPLC (operation conditions 1). From the area obtained as an average of three measurements, the solubility of the compound (b) was determined.
II) Measurement of the solubility of the compound (j)
The compound (j) was weighed in an amount of 0.94 mg, to which 0.94 ml of acetonitrile was added so that the compound was dissolved to provide a standard solution. Using a 10 μl portion of the standard solution, the test was conducted by HPLC (operation conditions 1). […] The area obtained as an average of three measurements was plotted against the amount (10.0 μg) of the compound (j) per 10 μl, whereby a calibration curve was prepared.
Calibration curve: Y=2.02×10^-5 X [X: peak area, Y: amount (μg) of the compound (j)]
2) Solubility test of the compound (j)
as §1, with “(j)” for “(b)”, “4.24” for “4.0”, “46” for “45”

The conditions of data set [2]: background statement on Taxol; cited from earlier work.
Data set [3] concerns ovarian cancer and breast cancer. The conditions noted are these: Ann. int. Med. 111, 273, 1989; cited from earlier work.

The source of these data is US6136808A, “Taxane derivatives” (Kabushiki Kaisha Yakult Honsha, priority 1997, dated 2000).

The structures appear in SMILES notation. Converted amounts (≈) assume the structure as drawn. Like-named read-outs stand apart in the source and are kept apart here.

For `CC(=O)OC12COC1CC(O)C1(C)C(=O)C(OC(=O)N3CCN(C)CC3)C3=C(C)C(OC(=O)C(O)C(NC(=O)c4ccco4)c4ccccc4)CC(O)(C(OC(=O)c4ccccc4)C21)C3(C)C` (stereo not drawn) [Compound b, 13-O-[3-(2-Furoylamino)-2-hydroxy-3-phenylpropionyl]-10-O-(4-methylpiperazinocarbonyl)-10-deacetylbaccatin III], the GI50 with KB cells (KB cells, 3 days, XTT, read-out: GI50) was determined as 1.4 ng/mL (≈ 0.00151 µM). In addition, in data set [1], the “Dissolved amount (Y)” value is reported as 9.98 μg/5 μl, the concentration in solution (solubility) was 2000 µg/mL (≈ 2160 µM) and the solubility at 2 h was 2000 µg/mL.
With `CCN1CCN(C(=O)OC2C(=O)C3(C)C(O)CC4OCC4(OC(C)=O)C3C(OC(=O)c3ccccc3)C3(O)CC(OC(=O)C(O)C(NC(=O)OC4CCCC4)c4ccccc4)C(C)=C2C3(C)C)CC1` (stereo not drawn) [Compound j, 13-O-(3-Cyclopentyloxycarbonylamino-2-hydroxy-3-phenylpropionyl)-10-O-(4-ethylpiperazinocarbonyl)-10-deacetylbaccatin III], growth in the data set with KB cells (KB) was halved (GI50) at 0.58 ng/mL (≈ 0.000604 µM). Besides, in data set [1], the “Dissolved amount (Y)” value is 9.20 μg/5 μl, the solubility was determined as 1840 µg/mL (≈ 1920 µM) and the solubility at 2 h amounted to 1840 µg/mL.
Regarding `CC(=O)O[C@H]1C(=O)[C@@]2(C)[C@H]([C@H](OC(=O)c3ccccc3)[C@]3(O)C[C@H](OC(=O)[C@H](O)[C@@H](NC(=O)c4ccccc4)c4ccccc4)C(C)=C1C3(C)C)[C@]1(OC(C)=O)CO[C@@H]1C[C@@H]2O` [Taxol, reference compound], in the data set on KB cells (KB), the GI50 turned out to be 1.3 ng/mL (≈ 0.00152 µM). Also, in data set [1], the solubility stood at 0.4 µg/mL (≈ 0.468 µM). In data set [2], the “solubility in water (in words)” value was “sparingly soluble in water”. The “efficacy against ovarian cancer and breast cancer” value in data set [3] is “high efficacy against ovarian cancer and breast cancer”.

Usually GI50 stands for the concentration that inhibits growth by half. One may read the solubility as the dissolved amount per volume that the medium holds.
